The target in assay [1] is T1, catalytic domain (JH1, amino acids 826-1132) of human JAK2 (Homo sapiens, UniProt O60674).
T1 construct: catalytic domain (JH1, amino acids 826-1132) of human JAK2; FLAG (N); purchased Carna Biosciences 08-445-20N; host or cells: baculovirus expression system
Put plainly: JAK2 LanthaScreen JH1 Binding Assay. Particulars: 50 nM fluorescent JAK2-JH1 tracer, 2 hours at 25° C.; read-out: JH1 BIND (EX. A). On the procedure: Example A. JAK2 LanthaScreen JH1 Binding Assay
JAK2 JH1 binding assay utilizes catalytic domain (JH1, amino acids 826-1132) of human JAK2 expressed as N-terminal FLAG-tagged, biotinylated protein in a baculovirus expression system (Carna Biosciences, Product #08-445-20N). The assay was conducted in black 384-well polystyrene plates in a final reaction volume of 20 μL. JAK2 JH1 (1.5 nM) was incubated with compounds (100 nL serially diluted in DMSO) in the presence of 50 nM fluorescent JAK2-JH1 tracer and 0.5 nM Streptavidin-Tb cryptate (Cisbio Part #610SATLB) in assay buffer (50 mM Tris, pH=7.5, 10 mM MgCl2, 0.01% Brij-35, 0.1% BSA, 1 mM EGTA, 5% Glycerol and 5 mM DTT). Non-specific binding was accessed in the presence of 2 mM ATP. After incubation for 2 hours at 25° C., LanthaScreen signals were read on a PHERAstar FS plate reader (BMG LABTECH). Data was analyzed with IDBS Xlfit and GraphPad Prism 5.0 software using a four parameter dose response curve to determine IC50 for each compound.
In general terms: In TR-FRET formats the signal depends on donor and acceptor labels being close together.

In assay [2] the target is T2, pseudo-kinase domain (JH2, amino-acids 536-812) of human Wild Type JAK2 (Homo sapiens, UniProt O60674, F794H/W659A/W777A).
T2 construct: JH2, amino-acids 536-812 with 3 surface mutations W659A, W777A, F794H; His (C); purchased BPS Bioscience 79463; host or cells: baculovirus expression system
Put plainly: JAK2 LanthaScreen JH2-WT Binding Assay. Conditions: 50 nM Fluorescent JAK2-JH2 Tracer, 1 hour at 25° C.; read-out: JH2 BIND WT (EX. B). On the procedure: Example B. JAK2 LanthaScreen JH2-WT Binding Assay
(§1) JAK2 JH2-WT binding assay utilizes pseudo-kinase domain (JH2, amino-acids 536-812 with 3 surface mutations W659A, W777A, F794H) of human Wild Type JAK2 expressed as C-terminal His-Avi-tagged, biotinylated protein in a baculovirus expression system (BPS Bioscience, Catalog #79463). The assay was conducted in black 384-well polystyrene plates in a final reaction volume of 20 μL. JAK2 JH2-WT (0.145 nM) was incubated with compounds (100 nL serially diluted in DMSO) in the presence of 50 nM Fluorescent JAK2-JH2 Tracer (MedChem Express Catalog #HY-102055) and 0.25 nM Streptavidin-Tb cryptate (Cisbio Part #610SATLB) in assay buffer (50 mM Tris, pH=7.5, 10 mM MgCl2, 0.01% Brij-35, 0.1% BSA, 1 mM EGTA, 5% Glycerol and 5 mM DTT). Non-specific binding was accessed in the presence of 2 mM ATP. After incubation for 1 hour at 25° C., LanthaScreen signals were read on a PHERAstar FS plate reader (BMG LABTECH). Data was analyzed with IDBS Xlfit and GraphPad Prism 5.0 software using a four parameter dose response curve to determine IC50 for each compound.

Assay [3] has as its target T3, pseudo-kinase domain (JH2, amino-acids 536-812) of human V617F mutant JAK2 (Homo sapiens, UniProt O60674, F794H/V617F/W659A/W777A).
T3 construct: JH2, amino-acids 536-812 with 3 surface mutations W659A, W777A, F794H; His (C); purchased BPS Bioscience 79498; host or cells: baculovirus expression system
Put plainly: JAK2 LanthaScreen JH2-V617F Binding Assay. Particulars: 50 nM Fluorescent JAK2-JH2 Tracer, 1 hour at 25° C.; read-out: JH2 BIND V617F (Ex. C). On the procedure:
Example C. JAK2 LanthaScreen JH2-V617F Binding Assay
as §1, with “JH2-V617F” for “JH2-WT”, “V617F mutant” for “Wild Type”, “#79498).” for “#79463).”, “JH2-V617F (0.26” for “JH2-WT (0.145”

The target of assay [4] is T4, catalytic domain (JH1, amino acids 808-1132) of human JAK2 (Homo sapiens, UniProt O60674).
T4 construct: catalytic domain (JH1, amino acids 808-1132) of human JAK2; His (N); purchased BPS Bioscience 40450; host or cells: baculovirus expression system
Put plainly: JAK2 HTRF Enzyme Activity Assay. The format is biochemical. Conditions: ATP (30 μM or 1 mM; not stated which for the table), 60 minutes at 25° C.; read-out: JAK2 HTRF (Ex. D). On the procedure: Example D. JAK2 HTRF Enzyme Activity Assay
JAK2 enzyme activity assays utilize catalytic domain (JH1, amino acids 808-1132) of human JAK2 expressed as N-terminal His-tagged protein in a baculovirus expression system (BPS Bioscience, Catalog #40450). The assays was conducted in black 384-well polystyrene plates in a final reaction volume of 20 μL. JAK2 (0.015 nM) was incubated with compounds (100 nL serially diluted in DMSO) in the presence of ATP (30 μM or 1 mM) and 500 nM Biotin-labeled EQEDEPEGDYFEWLE (SEQ ID NO.: 1) peptide (BioSource International, custom synthesis) in assay buffer (50 mM Tris, pH=7.5, 10 mM MgCl2, 0.01% Brij-35, 0.1% BSA, 1 mM EGTA, 5% Glycerol and 5 mM DTT) for 60 minutes at 25° C. The reactions were stopped by the addition of 10 μL of detection buffer (50 mM Tris, pH 7.8, 0.5 mg/mL BSA, 150 mM NaCl), supplemented with EDTA, LANCE Eu-W1024 anti-phosphotyrosine (PY20), (PerkinElmer, Catalog #AD0067) and Streptavidin SureLight APC (PerkinElmer Catalog #CR130-100), for a final concentration of 15 mM, 1.5 nM and 75 nM, respectively. HTRF signals were read after 30 minutes incubation at room temperature on a PHERAstar FS plate reader (BMG LABTECH). Data was analyzed with TDBS Xlfit and GraphPad Prism 5.0 software using a four parameter dose response curve to determine IC50 for each compound.

Where only a bound is given, the exact number is not on record here.

T4 sequence (O60674 808-1132): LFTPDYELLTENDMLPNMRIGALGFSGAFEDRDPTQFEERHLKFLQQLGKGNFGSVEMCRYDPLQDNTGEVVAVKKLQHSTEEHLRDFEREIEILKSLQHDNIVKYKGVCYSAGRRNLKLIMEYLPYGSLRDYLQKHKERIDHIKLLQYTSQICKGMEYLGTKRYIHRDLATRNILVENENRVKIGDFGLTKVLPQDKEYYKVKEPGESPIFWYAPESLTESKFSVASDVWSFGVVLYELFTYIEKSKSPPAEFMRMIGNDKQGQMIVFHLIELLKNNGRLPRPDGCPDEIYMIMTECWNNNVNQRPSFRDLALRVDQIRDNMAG
T3 sequence (O60674 536-812 V617F/W659A/W777A/F794H): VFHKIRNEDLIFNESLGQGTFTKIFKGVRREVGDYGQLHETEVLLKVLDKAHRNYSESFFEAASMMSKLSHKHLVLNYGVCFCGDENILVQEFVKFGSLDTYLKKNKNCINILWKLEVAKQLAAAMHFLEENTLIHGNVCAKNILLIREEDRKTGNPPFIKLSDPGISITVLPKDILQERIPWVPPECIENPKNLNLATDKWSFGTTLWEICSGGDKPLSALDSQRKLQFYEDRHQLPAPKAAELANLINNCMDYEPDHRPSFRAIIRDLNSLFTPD
T2 sequence (O60674 536-812 W659A/W777A/F794H): as the sequence (O60674 536-812 V617F/W659A/W777A/F794H) above, with F82V counted along it
T1 sequence (O60674 826-1132): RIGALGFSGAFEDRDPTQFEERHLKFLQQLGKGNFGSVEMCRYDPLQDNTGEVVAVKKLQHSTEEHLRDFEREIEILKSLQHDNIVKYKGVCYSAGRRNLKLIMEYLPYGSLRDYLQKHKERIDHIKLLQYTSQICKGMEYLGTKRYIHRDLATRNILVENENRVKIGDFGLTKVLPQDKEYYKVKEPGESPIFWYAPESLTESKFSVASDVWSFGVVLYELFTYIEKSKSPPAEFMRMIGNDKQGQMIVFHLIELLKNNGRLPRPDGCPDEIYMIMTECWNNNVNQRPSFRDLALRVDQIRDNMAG

Turning to `[2H]C([2H])([2H])n1c(=O)n([C@@H]2CC[C@@H](NC(=O)OC)C2)c2cc(Nc3cc(CO)c4cccc(C(F)(F)F)c4n3)ncc21` [Example 1, Methyl ((1R,3R)-3-(6-((4-(hydroxymethyl)-8-(trifluoromethyl)quinolin-2-yl)amino)-3-(methyl-d3)-2-oxo-2,3-dihydro-1H-imidazo[4,5-c]pyridin-1-yl)cyclopentyl)carbamate], the IC50 in assay [1] was > 1 µM; in assay [2], ≤ 0.01 µM; in assay [3] it was ≤ 0.01 µM; in assay [4] it was > 1 µM.
In the case of `[2H]C([2H])([2H])n1c(=O)n([C@@H]2CC[C@@H](NC(=O)OC)C2)c2cc(Nc3cc(C(C)O)c4cccc(C(F)(F)F)c4n3)ncc21` (stereo partly drawn) [Example 2, Methyl ((1R,3R)-3-(6-((4-(1-hydroxyethyl)-8-(trifluoromethyl)quinolin-2-yl)amino)-3-(methyl-d3)-2-oxo-2,3-dihydro-1H-imidazo[4,5-c]pyridin-1-yl)cyclopentyl)carbamate], the IC50 in assay [1] was > 1 µM; in assay [2] it was ≤ 0.01 µM; in assay [3], ≤ 0.01 µM; in assay [4], > 1 µM.
On to `[2H]C([2H])([2H])n1c(=O)n([C@@H]2CC[C@]([2H])(NC(=O)OC)C2)c2cc(Nc3cc(C(C)(C)O)c4cccc(C(F)(F)F)c4n3)ncc21` [Example 11, Methyl ((1S,3R)-3-(6-((4-(2-hydroxypropan-2-yl)-8-(trifluoromethyl)quinolin-2-yl)amino)-3-(methyl-d3)-2-oxo-2,3-dihydro-1H-imidazo[4,5-c]pyridin-1-yl)cyclopentyl-1-d)carbamate], for which the IC50 is ≤ 0.01 µM in assay [3] and > 1 µM in assay [4].
On to `[2H]C([2H])([2H])n1c(=O)n([C@@H]2CC[C@@]([2H])(NC(=O)OC)C2)c2cc(Nc3cc(C(C)(C)O)c4cccc(C(F)(F)F)c4n3)ncc21` [Example 12, Methyl ((1R,3R)-3-(6-((4-(2-hydroxypropan-2-yl)-8-(trifluoromethyl)quinolin-2-yl)amino)-3-(methyl-d3)-2-oxo-2,3-dihydro-1H-imidazo[4,5-c]pyridin-1-yl)cyclopentyl-1-d)carbamate], for which the IC50 was ≤ 0.01 µM in assay [3] and > 1 µM in assay [4].
Consider `[2H]C([2H])([2H])n1c(=O)n([C@@H]2CC[C@](C)(NC(=O)OC)C2)c2cc(Nc3cc(C(C)(C)O)c4cccc(C(F)(F)F)c4n3)ncc21` [Example 13, Methyl ((1S,3R)-3-(6-((4-(2-hydroxypropan-2-yl)-8-(trifluoromethyl)quinolin-2-yl)amino)-3-(methyl-d3)-2-oxo-2,3-dihydro-1H-imidazo[4,5-c]pyridin-1-yl)-1-methylcyclopentyl)carbamate], for which the figures for the IC50 in assay [3] and in assay [4] were ≤ 0.01 µM and > 1 µM, respectively.
For the compound `[2H]C([2H])([2H])n1c(=O)n([C@@H]2CC[C@](C)(NC(=O)OCCOC)C2)c2cc(Nc3cc(C(C)(C)O)c4cccc(C(F)(F)F)c4n3)ncc21` [Example 14, 2-Methoxyethyl ((1S,3R)-3-(6-((4-(2-hydroxypropan-2-yl)-8-(trifluoromethyl)quinolin-2-yl)amino)-3-(methyl-d3)-2-oxo-2,3-dihydro-1H-imidazo[4,5-c]pyridin-1-yl)-1-methylcyclopentyl)carbamate], the IC50 in assay [3] is ≤ 0.01 µM; in assay [4], > 1 µM.
`[2H]C([2H])([2H])n1c(=O)n(C23CCC(NC(=O)OC)(C2)C3)c2cc(Nc3cc(C(C)(C)O)c4cccc(C(F)(F)F)c4n3)ncc21` [Example 32, Methyl (4-(6-((4-(2-hydroxypropan-2-yl)-8-(trifluoromethyl)quinolin-2-yl)amino)-3-(methyl-d3)-2-oxo-2,3-dihydro-1H-imidazo[4,5-c]pyridin-1-yl)bicyclo[2.1.1]hexan-1-yl)carbamate]: the values for the IC50 in assay [3] and in assay [4] were ≤ 0.01 µM and > 1 µM, respectively.
The corresponding values for `[2H]C([2H])([2H])n1c(=O)n(C23CC(NC(=O)OC)(C2)C3)c2cc(Nc3ccc4cccc(C(F)(F)F)c4n3)ncc21` [Example 33, Methyl (3-(3-(methyl-d3)-2-oxo-6-((8-(trifluoromethyl)quinolin-2-yl)amino)-2,3-dihydro-1H-imidazo[4,5-c]pyridin-1-yl)bicyclo[1.1.1]pentan-1-yl)carbamate] are 0.01 to 0.1 µM and > 1 µM.
The corresponding values for `[2H]C([2H])([2H])n1c(=O)n([C@@H]2CC[C@@H](NC(=O)OC)C2)c2cc(Nc3cc(C(C)(C)O)c4cccc(C(C)(C)C#N)c4n3)ncc21` [Example 34, Methyl ((1R,3R)-3-(6-((8-(2-cyanopropan-2-yl)-4-(2-hydroxypropan-2-yl)quinolin-2-yl)amino)-3-(methyl-d3)-2-oxo-2,3-dihydro-1H-imidazo[4,5-c]pyridin-1-yl)cyclopentyl)carbamate] are 0.01 to 0.1 µM and > 1 µM.
The corresponding values for `[2H]C([2H])([2H])n1c(=O)n([C@@H]2CC[C@@]([2H])(NC(=O)OC)C2)c2cc(Nc3cc(C)c4nc(C)c(I)n4n3)ncc21` [Example 46, Methyl ((1R,3R)-3-(6-((3-iodo-2,8-dimethylimidazo[1,2-b]pyridazin-6-yl)amino)-3-(methyl-d3)-2-oxo-2,3-dihydro-1H-imidazo[4,5-c]pyridin-1-yl)cyclopentyl-1-d)carbamate] are ≤ 0.01 µM and > 1 µM.

For the origin of these results see US20250304582A1, “Bicyclic Ureas As Kinase Inhibitors” (Incyte Corporation, priority 2024, published 2025).
